In brackets after ≈: the same amount, converted by molar mass.

The test relates to Staphylococcus aureus. Briefly: Antibacterial activity against methicillin-resistant Staphylococcus aureus USA300 LAC assessed as reduction in bacterial growth incubated for 21 hrs by broth dilution method. It counts as functional.
Usually MIC stands for the least concentration at which growth counts as inhibited. As to `CC(C)[C@@H]1NC(=O)[C@@H](Cc2c[nH]c3ccccc23)NC(=O)[C@H](C(C)C)NC(=O)[C@H]2CCCN2C(=O)[C@H](Cc2c[nH]c3ccccc23)NC(=O)[C@@H](C(C)C)NC(=O)[C@@H]2CSC1N2`, the MIC stood at 117 µM (≈ 100 µg/mL).
With `CC[C@H](C)[C@H]1NC(=O)[C@H](Cc2c[nH]c3ccccc23)NC(=O)[C@@H](C(C)C)NC(=O)[C@@H]2CSC(N2)[C@H](C(C)C)NC(=O)[C@@H](C(C)C)NC(=O)[C@H](C(C)C)NC1=O`, the MIC worked out at 31.9 µM (≈ 25 µg/mL).
Take `CC(C)C[C@H]1NC(=O)[C@H](C(c2ccccc2)c2ccccc2)NC(=O)[C@@H](C(C)C)NC(=O)[C@@H]2CSC(N2)[C@H](C(C)C)NC(=O)[C@@H](C(C)C)NC(=O)[C@H](C(C)C)NC1=O`: the MIC is 61.1 µM (≈ 50.1 µg/mL).
Take `CC(C)C[C@H]1NC(=O)[C@H](Cc2cccs2)NC(=O)[C@@H](C(C)C)NC(=O)[C@@H]2CSC(N2)[C@H](C(C)C)NC(=O)[C@@H](C(C)C)NC(=O)[C@H](C(C)C)NC1=O`: the MIC was 134 µM (≈ 100 µg/mL).
For `CCC[C@H]1NC(=O)[C@H](Cc2c[nH]c3ccccc23)NC(=O)[C@@H](C(C)C)NC(=O)[C@@H]2CSC(N2)[C@H](C(C)C)NC(=O)[C@@H](Cc2c[nH]c3ccccc23)NC(=O)[C@H](C(C)C)NC1=O`, the MIC was 14.6 µM (≈ 12.5 µg/mL).
With `CC(C)C[C@H]1NC(=O)[C@@H]2CSC(N2)[C@H](C(C)C)NC(=O)[C@@H](C(C)C)NC(=O)[C@H](C(C)C)NC(=O)[C@@H](CC(C)C)NC(=O)[C@H](Cc2c[nH]c3ccccc23)NC1=O` the figure was 15.7 µM (≈ 12.5 µg/mL); with `CC(C)C[C@H]1NC(=O)[C@H](Cc2c[nH]cn2)NC(=O)[C@@H](C(C)C)NC(=O)[C@@H]2CSC(N2)[C@H](C(C)C)NC(=O)[C@@H](C(C)C)NC(=O)[C@H](C(C)C)NC1=O`, 136 µM (≈ 100 µg/mL).
As for `CC(C)C[C@H]1NC(=O)[C@H](Cc2cccc3ccccc23)NC(=O)[C@@H](C(C)C)NC(=O)[C@@H]2CSC(N2)[C@H](C(C)C)NC(=O)[C@@H](C(C)C)NC(=O)[C@H](C(C)C)NC1=O`, the MIC was determined as 7.9 µM (≈ 6.27 µg/mL).
In the case of `CC(C)C[C@H]1NC(=O)[C@H](Cc2ccc(O)cc2)NC(=O)[C@@H](C(C)C)NC(=O)[C@@H]2CSC(N2)[C@H](C(C)C)NC(=O)[C@@H](C(C)C)NC(=O)[C@H](C(C)C)NC1=O`, the MIC is 132 µM (≈ 100 µg/mL).
Consider `CC[C@@H](C)[C@H]1NC(=O)[C@@H]2CSC(N2)[C@H](C(C)C)NC(=O)[C@@H](C(C)C)NC(=O)[C@H](C(C)C)NC(=O)[C@@H](CC(C)C)NC(=O)[C@H](Cc2c[nH]c3ccccc23)NC1=O`, for which the MIC turned out to be 31.4 µM (≈ 25 µg/mL).
With `CC(C)C[C@H]1NC(=O)[C@H](Cc2nc3ccccc3s2)NC(=O)[C@@H](C(C)C)NC(=O)[C@@H]2CSC(N2)[C@H](C(C)C)NC(=O)[C@@H](C(C)C)NC(=O)[C@H](C(C)C)NC1=O`, the MIC turned out to be 31.3 µM (≈ 25.1 µg/mL).
With `CC[C@@H](C)[C@H]1NC(=O)[C@H](Cc2c[nH]c3ccccc23)NC(=O)[C@@H](C(C)C)NC(=O)[C@@H]2CSC(N2)[C@H](C(C)C)NC(=O)[C@@H](C(C)C)NC(=O)[C@H](C(C)C)NC1=O` the figure was 14.4 µM (≈ 11.3 µg/mL).
For `C#CC[C@H]1NC(=O)[C@H](Cc2c[nH]c3ccccc23)NC(=O)[C@@H](C(C)C)NC(=O)[C@@H]2CSC(N2)[C@H](C(C)C)NC(=O)[C@@H](Cc2c[nH]c3ccccc23)NC(=O)[C@H](C(C)C)NC1=O`, the MIC was determined as 58.8 µM (≈ 50.1 µg/mL).
As to `C#CC[C@@H]1NC(=O)[C@@H](C(C)C)NC(=O)[C@@H]2CSC(N2)[C@H](C(C)C)NC(=O)[C@@H](C(C)C)NC(=O)[C@H](C(C)C)NC(=O)[C@@H](CC(C)C)NC1=O`, the MIC was determined as 72.4 µM (≈ 50.1 µg/mL).
In the case of `CC(C)C[C@H]1NC(=O)[C@H](Cc2ccc(Cl)cc2)NC(=O)[C@@H](C(C)C)NC(=O)[C@@H]2CSC(N2)[C@H](C(C)C)NC(=O)[C@@H](C(C)C)NC(=O)[C@H](C(C)C)NC1=O`, the MIC was found to be 129 µM (≈ 100 µg/mL).
With `C#CC[C@H]1NC(=O)[C@@H]2CSC(N2)[C@H](C(C)C)NC(=O)[C@@H](Cc2c[nH]c3ccccc23)NC(=O)[C@H](C(C)C)NC(=O)[C@@H](CC(C)C)NC(=O)[C@H](Cc2c[nH]c3ccccc23)NC1=O`, the MIC worked out at 3.9 µM (≈ 3.38 µg/mL).
Regarding `CC(C)C[C@H]1NC(=O)[C@H](Cc2ccco2)NC(=O)[C@@H](C(C)C)NC(=O)[C@@H]2CSC(N2)[C@H](C(C)C)NC(=O)[C@@H](C(C)C)NC(=O)[C@H](C(C)C)NC1=O`, the MIC was 136 µM (≈ 100 µg/mL).
In the case of `CC(C)[C@@H]1NC(=O)[C@@H](Cc2c[nH]c3ccccc23)NC(=O)[C@H](C(C)C)NC(=O)[C@@H](Cc2ccccc2)NC(=O)[C@H](Cc2c[nH]c3ccccc23)NC(=O)[C@@H](C(C)C)NC(=O)[C@@H]2CSC1N2`, the MIC is 111 µM (≈ 100 µg/mL).
Then `CC(C)C[C@H]1NC(=O)[C@H](Cc2ccccc2)NC(=O)[C@@H](C(C)C)NC(=O)[C@@H]2CSC(N2)[C@H](C(C)C)NC(=O)[C@@H](C(C)C)NC(=O)[C@H](C(C)C)NC1=O`, with 16.8 µM (≈ 12.5 µg/mL).
For the compound `CC(C)C[C@H]1NC(=O)[C@H](Cc2c3ccccc3cc3ccccc23)NC(=O)[C@@H](C(C)C)NC(=O)[C@@H]2CSC(N2)[C@H](C(C)C)NC(=O)[C@@H](C(C)C)NC(=O)[C@H](C(C)C)NC1=O`, the MIC was 7.4 µM (≈ 6.25 µg/mL).
Take `CC(C)CC[C@H]1NC(=O)[C@@H]2CSC(N2)[C@H](C(C)C)NC(=O)[C@@H](C(C)C)NC(=O)[C@H](C(C)C)NC(=O)[C@@H](CC(C)C)NC(=O)[C@H](Cc2c[nH]c3ccccc23)NC1=O`: the MIC was 61.7 µM (≈ 50 µg/mL).

For the origin of these results see ChEMBL document CHEMBL4834415, “Distinct Lugdunins from a New Efficient Synthesis and Broad Exploitation of Its MRSA-Antimicrobial Structure” (2021).
